Experimental data reported in a melting point compilation (Tetko et al.; mined from patent text by program, amines drawn as free bases though some values may be those of a salt).
Non-standard residues stand in square brackets, D forms with d. Residues, ends and D or L forms follow the SMILES beside them. Hyp = O=C(O)[C@@H]1C[C@@H](O)CN1

First: COc1cc(C2CCN(CCO)CC2)ccc1Nc1ncc2ccc(-c3cccc(S(=O)(=O)NC(C)(C)C)c3)n2n1
Second: O=C(O)c1nc2ccc(NCCCN3CCC(OC(c4ccccc4)c4ccccc4)CC3)nn2n1
The melting point of the first is higher: 220 to 224 °C for the first, 135 to 138 °C for the second.

First: CN(N)c1ccc(-c2ccccc2)nn1
Second: c1ccc(-c2cc(N3CCNCC3)nc3ccccc23)cc1
The melting point of the first is higher: 145 to 147 °C for the first, 133 to 134 °C for the second.

Compared with `C[C@H]1[C@@H](O)CC(=O)N1c1ccc(C#N)c(Cl)c1`, `CCCN1NCc2c(C3C(=O)Nc4ccc(F)cc43)ncnc21` (configuration not stated) is higher in melting point: 161 to 162 °C for the first, 288 to 292 °C for the second.

Compared with `Cc1oc(-c2ccccc2)nc1CCc1nc(COc2ccccc2CC(=O)O)cs1`, `O=C(Nc1ccccc1)Oc1ccccc1` is lower in melting point: 152 to 153 °C for the first, 123 to 124 °C for the second.

Compared with `CC(=O)Nc1cc(O)ccc1/C=C/c1ccc(O)cc1`, `COc1ccc(/C=C/C(=O)c2ccc(C(=O)O)cc2)cc1-c1cccs1` is lower in melting point: 227 to 229 °C for the first, 219 to 220 °C for the second.

First: O=C(CNc1ccc(O)cc1)N1CCC(Cc2ccccc2)CC1
Second: CS(=O)(=O)Nc1ccc(C(=O)NCCN2CCc3ccsc3C2c2ccccc2)cc1 (configuration not stated)
The melting point of the first is lower: 138 to 140 °C for the first, 185 to 187 °C for the second.

First: COc1cccc2c1OC(SC)C2=O (configuration not stated)
Second: COc1ccccc1-c1coc2cc(O)ccc2c1=O
The melting point of the first is lower: 103 to 105 °C for the first, 222 to 224 °C for the second.

First: CNc1nc(Cl)nc2c1ncn2C1CC(O)C(CO)O1 (configuration not stated)
Second: Cc1ccc(-c2c(Cl)nc3ncnn3c2NC2CCCC2)cc1
The melting point of the first is higher: 163 to 165 °C for the first, 158 °C for the second.

Compared with `OCc1conc1-c1ccc(C(F)(F)F)cc1`, `O=Cc1cccn1-c1ccc(C(F)(F)F)cc1Cl` is higher in melting point: 70 to 71 °C for the first, 119 to 120 °C for the second.

Compared with `CCCCCc1c(C(C)C)nc(C(C)C)c(CO)c1-c1ccc(C)cc1`, `CCCCCS(=O)(=O)NC(=O)OCc1ccc(OC(C)C)cc1Oc1ncc(C(F)(F)F)cc1Cl` is lower in melting point: 92 to 94 °C for the first, 70 to 73 °C for the second.

Compared with `Cc1cc(C(=O)Nc2ccccc2O)cc(C)c1O`, `Cc1cc(OCc2ccccc2)c(C)cc1CO` is lower in melting point: 142 to 145 °C for the first, 58 to 59 °C for the second.

First: Cc1cc(C)c(Nc2nc(C)ccc2S(=O)(=O)c2ccc(OCc3c(F)cccc3[N+](=O)[O-])cc2)c(C)c1
Second: CC(=O)Nc1nc(N)nc(-c2ccc(S(=O)(=O)c3ccccc3)cc2)n1
The melting point of the first is lower: 132 to 134 °C for the first, > 260 °C for the second.

Compared with `COc1ccc2c(c1)c1c3c(c(-c4ccccc4Cl)cc1n2CCC(=O)NS(=O)(=O)CCN(C)C)C(=O)NC3=O`, `CCOC(=O)C1=C(c2ccc(OC)c(OC)c2)c2ccccc2C1=O` is lower in melting point: 208 to 213 °C for the first, 130 °C for the second.

First: O=C(O)CCC(=O)c1ccc(OCCCCN2C(=O)c3ccccc3C2=O)cc1
Second: COc1ccc(/C(=C\C=C\C(=O)O)c2ccccc2)cc1
The melting point of the first is lower: 133 to 134 °C for the first, 184 to 185 °C for the second.

First: CCCCCCCCCCCCCCCCCC(=O)Nc1ccn(C2OC(CO)C(O)C2O)c(=O)n1 (configuration not stated)
Second: CCCCCCCCCCCCSC(CCC)C(=O)Nc1cc(C)c(O)c(C)c1C (configuration not stated)
The melting point of the first is higher: 147 to 151 °C for the first, 116 °C for the second.

First: CC(C)[C@H](OCc1ccccc1)[C@H]1[C@H]([N+](=O)[O-])[C@H](C(C)(C)C)N[C@@H]1C(=O)NCC(=O)O
Second: C=CCOC(=O)Cc1cccc(NC(=O)NCC(=O)N(CC(=O)OC(C)(C)C)c2ccccc2C(=O)c2ccccc2)c1
The melting point of the first is lower: 119 to 120 °C for the first, 122 to 124 °C for the second.

Compared with `Sc1ccc(-n2cnnn2)cc1`, `CS(=O)c1ccc(-n2cnc3ccc(-c4nnc(CCc5cccc(C(F)(F)F)c5)o4)cc32)cc1` (configuration not stated) is higher in melting point: 120 to 122 °C for the first, 169 to 170 °C for the second.

Compared with `O=C(N[C@@H]1CCC[C@H]1O)C(O)=CC(=O)c1cc(Cc2ccc(F)cc2F)cn(Cc2ccccc2F)c1=O`, `CC(C)(c1ccc2ncccc2c1)n1nnc2ccc(-c3ccc(C(=O)NC4CC4)c(F)c3)nc21` is higher in melting point: 55 to 57 °C for the first, 156 to 159 °C for the second.

Compared with `COC(=O)C12COc3cc(C(F)(F)F)ccc3C1=NN(C(=O)N(C)c1ccc(C(F)(F)F)cc1)C2` (configuration not stated), `CCc1ccc(Oc2cc3c(cc2Cl)C=C(C(=O)O)C(C(F)(F)F)O3)cc1` (configuration not stated) is higher in melting point: 105 to 111 °C for the first, 196 °C for the second.

First: Cc1cccc2c(C=O)cc(C(C)C)c(O)c12
Second: COC(=O)Cc1cc(Br)c(S(=O)(=O)c2ccc(O)c(C(C)C)c2)c(Br)c1
The melting point of the first is lower: 125 to 128 °C for the first, 159 to 160 °C for the second.

Compared with `CSc1cc2c([nH]1)CC(C)(C)CC2=O`, `COc1c(OC)c(O)c2c(=O)c3ccc(O)c(OC)c3[nH]c2c1OC` is higher in melting point: 195 to 196 °C for the first, 214 to 215 °C for the second.

First: COc1c(OCC(F)(F)C(F)(F)F)ccnc1CSc1nc2ccccc2[nH]1
Second: COc1ccnc(CSc2nc3cc4c(cc3[nH]2)OC(F)C(F)(F)O4)c1 (configuration not stated)
The melting point of the first is lower: 116 to 117 °C for the first, 139 to 140 °C for the second.

First: CCCc1nc2c(N)nc3ccccc3c2n1CCC(=O)NC
Second: Cc1cccc(N2CCN(CCCCNC(=O)c3cc4ccccc4o3)CC2)c1
The melting point of the first is higher: 177 to 178 °C for the first, 119 to 120 °C for the second.

First: CN(c1cccc2cc(C3=NCC4(CCN(CC#N)CC4)S3)[nH]c12)S(=O)(=O)c1cccs1
Second: COC1(c2cc(F)cc(S(=O)(=O)c3ccc4c(c3)OCCC4=NO)c2)CCOCC1
The melting point of the first is higher: 211 °C for the first, 209 to 210 °C for the second.

Compared with `CN1C(C(=O)Nc2ccccn2)=C(OCOC(=O)c2ccccc2)c2ccccc2S1(=O)=O`, `CCOC(=O)C(=CNc1ccn(Cc2ccco2)n1)C(=O)c1ccccc1` is lower in melting point: 149 to 150 °C for the first, 75 to 77 °C for the second.

First: O=C1CCCCCCCCCCCCCCCCC1O (configuration not stated)
Second: O=C1CCNCCNC(=O)CCNCCN1
The melting point of the first is lower: 31 to 32 °C for the first, 198 to 199 °C for the second.

First: Cc1ccc2c(c1)C=C(C(=O)O)C(C(F)(F)F)O2 (configuration not stated)
Second: COc1ccc2c(c1)OCC(C(=O)O)O2 (configuration not stated)
The melting point of the first is higher: 192 to 193 °C for the first, 120 to 121 °C for the second.

Compared with `NC(=O)c1sccc1SSc1ccsc1C(N)=O`, `CCOC(=O)c1ccc(C(=O)OCC)nc1` is lower in melting point: 222 to 223 °C for the first, 46 to 47 °C for the second.

First: CC(=O)OCc1cccc(-n2cccc2)c1Br
Second: CCCCCCCCCc1ccc2c(c1)C1(O)C(=O)c3ccccc3C1(O)O2 (configuration not stated)
The melting point of the first is lower: 84 to 86.5 °C for the first, 108 to 110 °C for the second.

First: CCC(C(=O)O)N(C(=O)c1cn(-c2ccc(OC)cc2)nc1C)c1ccc(OCC(C)(C)C)c(C#N)c1 (configuration not stated)
Second: CCOC(=O)c1ccc(O[Si](C)(C)C(C)(C)C)c(OC)c1
The melting point of the first is higher: 113 to 114 °C for the first, 103 °C for the second.

First: CC1(C)CC(OC(=O)CCCCCCCCC(=O)OC2CC(C)(C)N(CC#N)C(C)(C)C2)CC(C)(C)N1CC#N
Second: NCC(=O)N1C[C@H](O)C[C@H]1C(=O)N[C@@H](CCC(=O)O)C(=O)O (H-Gly-[Hyp]-Glu-OH)
The melting point of the first is lower: 91 °C for the first, 158 to 160 °C for the second.

First: CNC(=S)NCCCSc1nccs1
Second: Cn1nc(C(C)(C)C)cc1O
The melting point of the first is lower: 67 to 68 °C for the first, 150 °C for the second.

First: COC(=O)C1=C(C(=O)N(C(=O)CCl)c2cc(OC)c(Cl)cc2F)CCCC1
Second: Cn1c(=O)cnn(-c2cc(OCC#CBr)c(Cl)cc2F)c1=O
The melting point of the first is lower: 109 °C for the first, 127 to 129 °C for the second.

First: O=C(O)c1ccc(-c2nc(-c3ccc(Cl)cc3)cs2)cc1
Second: O=C(NCCN1CCC(=C(c2ccc(F)cc2)c2ccc(F)cc2)CC1)C1CSC(c2cccnc2)N1 (configuration not stated)
The melting point of the first is higher: 284 to 285 °C for the first, 119 to 121 °C for the second.

Compared with `CN1CCN=C1C(C#N)=NO`, `Cc1cc(Nc2nccc(N3CCC(C)CC3)n2)[nH]n1` is lower in melting point: 216 °C for the first, 193 to 195 °C for the second.

Compared with `CCOC(=O)C(CC(C)C)(C(=O)OCC)[C@H](NC(C)=O)[PH](=O)O`, `Cc1cc2c(N=C=S)cccc2cn1` is lower in melting point: 105 to 106 °C for the first, 92 °C for the second.
